The results in this text go back to US8809352B2, “Sulfonamides as inhibitors of Bcl-2 family proteins for the treatments of cancer” (Novartis AG, priority 2009, dated 2014).

The structures appear in SMILES notation.

What is called IC50 is the concentration that gives 50% inhibition.

Chain of BCL2 (P10415 whole entry): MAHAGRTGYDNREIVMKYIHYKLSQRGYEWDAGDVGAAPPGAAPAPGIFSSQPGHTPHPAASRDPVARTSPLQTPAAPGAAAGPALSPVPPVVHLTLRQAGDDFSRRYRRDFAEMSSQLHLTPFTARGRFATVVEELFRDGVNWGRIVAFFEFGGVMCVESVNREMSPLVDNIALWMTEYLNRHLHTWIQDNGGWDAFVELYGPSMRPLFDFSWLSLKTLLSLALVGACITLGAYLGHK

The test addresses BCL2 (Homo sapiens, UniProt P10415). Description: Biacore SPR solution inhibition assay of BCL-2 binding to peptide derivatized sensor surfaces. As to conditions: SPR competition; 56 nM BCL2 pre-equilibrated with compound one hour; biotinylated BAK, BAD and NOXA peptide surfaces; 25° C. In outline:
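Solution-competition SPR at 25 °C in HEPES pH 7.4 buffer with 1.25 mM DTT and 3% DMSO: compounds (6-point threefold series, 16 μM to 0.004 nM) pre-equilibrated 1 h with 56 nM BCL2, then injected over captured biotinylated BAK, BAD and NOXA peptide surfaces. Binding levels relative to BCL2-only controls gave % inhibition.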
`CC#CCOc1ccccc1CN1CCC(N2CCc3c(ncnc3NS(=O)(=O)c3ccc(N[C@H](CCN(C)C)CSc4ccccc4)c(S(=O)(=O)C(F)(F)F)c3)C2)CC1` [Example 46, (R)-N-(7-(1-(2-(but-2-ynyloxy)benzyl)piperidin-4-yl)-5,6,7,8-tetrahydropyrido[3,4-d]pyrimidin-4-yl)-4-(4-(dimethylamino)-1-(phenylthio)butan-2-ylamino)-3-(trifluoromethylsulfonyl)benzenesulfonamide]: the IC50 was found to be 1770 nM.

On to `CN(C)CC[C@H](CSc1ccccc1)Nc1ccc(S(=O)(=O)Nc2nc(Cl)nc3c2CCN(C2CCN(Cc4ccccc4-c4ccc(Cl)cc4)CC2)C3)cc1S(=O)(=O)C(F)(F)F` [Example 50, (R)-N-(2-chloro-7-(1-((4′-chlorobiphenyl-2-yl)methyl)piperidin-4-yl)-5,6,7,8-tetrahydropyrido[3,4-d]pyrimidin-4-yl)-4-(4-(dimethylamino)-1-(phenylthio)butan-2-ylamino)-3-(trifluoromethylsulfonyl)benzenesulfonamide], for which the IC50 stood at 31 nM.

In the case of `CN(C)C(=O)C[C@H](CSc1ccccc1)Nc1ccc(S(=O)(=O)Nc2ncnc3c2CCN(C2CCN(Cc4ccccc4-c4ccc(Cl)cc4)CC2)C3)cc1[N+](=O)[O-]` [Example 22, (R)-3-(4-(N-(7-(1-((4′-chlorobiphenyl-2-yl)methyl)piperidin-4-yl)-5,6,7,8-tetrahydropyrido[3,4-d]pyrimidin-4-yl)sulfamoyl)-2-nitrophenylamino)-N,N-dimethyl-4-(phenylthio)butanamide], the IC50 came out at 75 nM.

With `O=S(=O)(Nc1ncnc2c1CCN(C1CCN(Cc3ccccc3-c3ccc(Cl)cc3)CC1)C2)c1ccc(NCCSc2ccccc2)c(S(=O)(=O)C(F)(F)F)c1` [Example 52], the IC50 is 1310 nM.

Take `[2H]C1(N2CCc3c(ncnc3NS(=O)(=O)c3ccc(N[C@H](CCN4CCOCC4)CSc4ccccc4)c(S(=O)(=O)C(F)(F)F)c3)C2)CCN(C(C)C2=C(c3ccc(Cl)cc3)CC(C)(C)CC2)CC1` (stereo partly drawn) [Example 90, N-(7-(1-(1-(2-(4-chlorophenyl)-4,4-dimethylcyclohex-1-enyl)ethyl) 4-deuteropiperidin-4-yl)-5,6,7,8-tetrahydropyrido[3,4-d]pyrimidin-4-yl)-4-((R)-4-D-morpholino-1-(phenylthio)butan-2-ylamino)-3-(trifluoromethylsulfonyl)benzenesulfonamide]: the IC50 is 149 nM.

For `CCC[C@H](CSc1ccccc1)Nc1ccc(S(=O)(=O)Nc2ncnc3c2CCN(C2CCN(Cc4ccccc4-c4ccc(Cl)cc4)CC2)C3)cc1S(=O)(=O)C(F)(F)F` [Example 43, (R)-N-(7-(1-((4′-chlorobiphenyl-2-yl)methyl)piperidin-4-yl)-5,6,7,8-tetrahydropyrido[3,4-d]pyrimidin-4-yl)-4-(1-(phenylthio)pentan-2-ylamino)-3-(trifluoromethylsulfonyl)benzenesulfonamide], the IC50 was found to be 2420 nM.

`CC(C1=C(c2ccc(Cl)cc2)CC(C)(C)CC1)N1CCC(N2CCc3c(ncnc3NS(=O)(=O)c3ccc(N[C@H](CCN4CCOCC4)CSc4ccccc4)c(S(=O)(=O)C(F)(F)F)c3)C2)CC1` (stereo partly shown) [Example 24]: the IC50 came to 89 nM.
